# Source: patent US8637511B2, “Aminopyrimidines useful as kinase inhibitors” (Vertex Pharmaceuticals Incorporated, priority 2005, dated 2014)
# Read-outs that look alike come from different tables or passages of the source.
# What was measured:
# [1] = system: Colo205 cells; assay: Analysis of cell proliferation and viability; format: cell-based; settings: Homo sapiens, read-out: IC50 value
# [2] = target: T1, human Itk kinase (Homo sapiens, UniProt Q08881); assay: Itk inhibition assay: radioactivity-based assay; format: biochemical; settings: Ki(app)
# T1 sequence (Q08881 1-620): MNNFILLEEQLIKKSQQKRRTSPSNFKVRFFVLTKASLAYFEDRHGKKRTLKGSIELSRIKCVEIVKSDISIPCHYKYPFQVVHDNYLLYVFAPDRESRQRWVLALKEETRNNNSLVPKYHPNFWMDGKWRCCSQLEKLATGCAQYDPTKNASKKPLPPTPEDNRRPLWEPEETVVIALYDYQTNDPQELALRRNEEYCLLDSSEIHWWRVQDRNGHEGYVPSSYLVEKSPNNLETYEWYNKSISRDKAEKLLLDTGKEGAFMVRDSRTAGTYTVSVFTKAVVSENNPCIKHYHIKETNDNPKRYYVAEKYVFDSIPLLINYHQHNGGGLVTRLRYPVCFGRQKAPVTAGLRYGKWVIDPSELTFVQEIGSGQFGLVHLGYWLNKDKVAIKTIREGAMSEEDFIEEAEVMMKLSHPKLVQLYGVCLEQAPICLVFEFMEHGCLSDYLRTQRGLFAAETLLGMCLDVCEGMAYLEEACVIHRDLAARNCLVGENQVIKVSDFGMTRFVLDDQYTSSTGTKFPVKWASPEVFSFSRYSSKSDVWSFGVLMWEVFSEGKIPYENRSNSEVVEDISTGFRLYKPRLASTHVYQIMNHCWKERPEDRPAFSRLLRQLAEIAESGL
# Description: The compounds of the present invention were evaluated as inhibitors of human Itk kinase using a radioactivity-based assay. These compounds can also be evaluated using a spectrophotometric or alphascreen assay.
# Assays were carried out in a mixture of 20 mM MOPS (pH 7.0), 10 mM MgCl2, 0.1% BSA and 1 mM DTT. Final substrate concentrations in the assay were 7.5 μM [γ-^33P]ATP (400 μCi ^33P ATP/μmol ATP, Amersham Pharmacia Biotech/Sigma Chemicals) and 3 μM peptide (SAM68 protein Δ332-443). Assays were carried out at 25° C. in the presence of 50 nM Itk. An assay stock buffer solution was prepared containing all of the reagents listed above, with the exception of ATP and the test compound of interest. 50 μL of the stock solution was placed in a 96 well plate followed by addition of 2 μL of DMSO stock containing serial dilutions of the test compound (typically starting from a final concentration of 50 μM with 2-fold serial dilutions) in duplicate (final DMSO concentration 2%). The plate was pre-incubated for 10 minutes at 25° C. and the reaction initiated by addition of 50 μL [γ-^33P]ATP (final concentration 7.5 μM).
# The reaction was stopped after 10 minutes by the addition of 100 μL 0.2M phosphoric acid+0.01% TWEEN 20. A multiscreen phosphocellulose filter 96-well plate (Millipore, Cat no. MAPHNOB50) was pretreated with 100 μL 0.2M phosphoric acid+0.01% TWEEN 20 prior to the addition of 170 μL of the stopped assay mixture. The plate was washed with 4×200 μL 0.2M phosphoric acid+0.01% TWEEN 20. After drying, 30 μL Optiphase ‘SuperMix’ liquid scintillation cocktail (Perkin Elmer) was added to the well prior to scintillation counting (1450 Microbeta Liquid Scintillation Counter, Wallac).
# Ki(app) data were calculated from non-linear regression analysis of the initial rate data using the Prism software package (GraphPad Prism version 3.0cx for Macintosh, GraphPad Software, San Diego Calif., USA).
# [3] = target: Aurora-1 (Aurora B) (Homo sapiens, UniProt Q96GD4); assay: Aurora-1 (Aurora B) inhibition assay (radiometric); format: biochemical; settings: read-out: Aurora B kinase Ki value
# Chain of Aurora-1 (Aurora B) (Q96GD4 whole entry): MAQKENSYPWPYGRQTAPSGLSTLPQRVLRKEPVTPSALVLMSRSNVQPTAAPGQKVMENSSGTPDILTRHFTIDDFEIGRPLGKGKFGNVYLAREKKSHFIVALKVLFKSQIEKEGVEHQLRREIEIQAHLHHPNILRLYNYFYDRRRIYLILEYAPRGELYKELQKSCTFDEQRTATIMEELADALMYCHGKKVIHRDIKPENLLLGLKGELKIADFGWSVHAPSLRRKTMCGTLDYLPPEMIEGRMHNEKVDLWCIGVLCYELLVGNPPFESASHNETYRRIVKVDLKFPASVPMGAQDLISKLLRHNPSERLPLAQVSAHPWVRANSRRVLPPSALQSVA
# In short: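 Ki values come from non-linear regression of background-corrected initial-rate data. The enzyme was preincubated 10 min at 25° C with compound, then reacted 3 h with 800 μM (final) [γ-^33P]-ATP in HEPES pH 7.5/MgCl2/BSA/glycerol buffer. The reaction was stopped with phosphoric acid and substrate-bound ^33P counted on phosphocellulose.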
# [4] = target: T2, Aurora-2 (Aurora A) (Homo sapiens, UniProt O14965); assay: Aurora-2 (Aurora A) inhibition assay, coupled enzyme; format: biochemical; settings: read-out: Aurora A kinase Ki value
# T2 sequence (O14965 1-403): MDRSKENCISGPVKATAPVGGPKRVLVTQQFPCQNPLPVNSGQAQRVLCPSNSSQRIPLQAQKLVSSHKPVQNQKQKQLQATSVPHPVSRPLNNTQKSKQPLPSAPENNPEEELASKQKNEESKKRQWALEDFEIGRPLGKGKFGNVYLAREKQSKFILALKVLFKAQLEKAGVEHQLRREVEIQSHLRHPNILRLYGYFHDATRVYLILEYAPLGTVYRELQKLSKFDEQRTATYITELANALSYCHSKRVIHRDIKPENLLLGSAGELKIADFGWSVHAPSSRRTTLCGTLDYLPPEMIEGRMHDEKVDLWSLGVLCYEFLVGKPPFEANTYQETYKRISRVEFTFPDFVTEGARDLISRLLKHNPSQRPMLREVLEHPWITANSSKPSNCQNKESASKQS
# In short: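 These rates came from NADH consumption coupled through pyruvate kinase and lactate dehydrogenase (100 mM Hepes pH 7.5, 10 mM MgCl2, 300 μM NADH). Aurora-2 was present at 40 nM, and the reaction ran at 30 °C after a 10 min preincubation.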
# [5] = target: T3, JAK3 (Homo sapiens, UniProt P52333); assay: biochemical
# T3 sequence (P52333 1-1124): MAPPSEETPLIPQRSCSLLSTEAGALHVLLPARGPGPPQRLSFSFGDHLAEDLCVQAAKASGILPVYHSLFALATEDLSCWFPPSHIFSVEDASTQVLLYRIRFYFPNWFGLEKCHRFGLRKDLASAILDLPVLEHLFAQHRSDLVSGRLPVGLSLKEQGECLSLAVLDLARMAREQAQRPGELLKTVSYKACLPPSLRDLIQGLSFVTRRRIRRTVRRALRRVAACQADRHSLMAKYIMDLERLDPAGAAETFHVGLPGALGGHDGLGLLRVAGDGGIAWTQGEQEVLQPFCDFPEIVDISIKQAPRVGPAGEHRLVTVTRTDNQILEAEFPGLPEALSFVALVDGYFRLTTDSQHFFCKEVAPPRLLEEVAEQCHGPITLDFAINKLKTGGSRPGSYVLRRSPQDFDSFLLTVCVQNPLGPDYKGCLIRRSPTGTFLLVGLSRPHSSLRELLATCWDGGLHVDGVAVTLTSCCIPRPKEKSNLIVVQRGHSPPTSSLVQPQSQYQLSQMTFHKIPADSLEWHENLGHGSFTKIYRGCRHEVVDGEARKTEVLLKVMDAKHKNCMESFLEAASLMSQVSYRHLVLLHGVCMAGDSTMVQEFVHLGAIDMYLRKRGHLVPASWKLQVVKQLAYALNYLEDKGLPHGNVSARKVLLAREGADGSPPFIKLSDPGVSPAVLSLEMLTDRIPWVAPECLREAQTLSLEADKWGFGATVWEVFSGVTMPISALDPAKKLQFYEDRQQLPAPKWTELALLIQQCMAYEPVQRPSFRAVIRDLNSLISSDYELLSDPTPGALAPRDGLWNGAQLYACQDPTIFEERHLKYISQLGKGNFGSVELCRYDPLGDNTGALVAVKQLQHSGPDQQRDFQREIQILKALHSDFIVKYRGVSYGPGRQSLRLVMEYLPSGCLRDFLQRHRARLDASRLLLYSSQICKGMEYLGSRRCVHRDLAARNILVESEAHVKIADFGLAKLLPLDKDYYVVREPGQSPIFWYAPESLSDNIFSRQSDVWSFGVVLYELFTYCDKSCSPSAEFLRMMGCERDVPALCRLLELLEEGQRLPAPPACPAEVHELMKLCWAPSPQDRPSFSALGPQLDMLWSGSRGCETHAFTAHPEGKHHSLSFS
# [6] = COLO 205, Colo205 cells, incubated for 96 hours
SMILES,"IC50 [1, 6]",Ki [2],"IC50 ([1]; COLO 205, 96 h)",further results
Cc1cc(Nc2cc(N3CCC3)nc(Sc3ccc(NC(=O)c4c(F)cccc4F)cc3)n2)n[nH]1 [Compound 7],≤ 50 nM,≤ 100 nM,–,–
Cc1cc(Nc2cc(N3CCC3)nc(Sc3ccc(NC(=O)c4ccccc4F)cc3)n2)n[nH]1 [Compound 9],50 to 1000 nM,100 to 1000 nM,–,Ki [3]: ≤ 10 nM
Cc1cccc(C(=O)Nc2ccc(Sc3nc(Nc4cc(C)[nH]n4)cc(N4CCC4)n3)cc2)c1 [Compound 29],–,100 to 1000 nM,50 to 1000 nM,–
Cc1cc(Nc2cc(N3CCC3)nc(Sc3ccc(NC(=O)c4ccccc4C)cc3)n2)n[nH]1 [Compound 31],–,100 to 1000 nM,50 to 1000 nM,–
COc1ccccc1C(=O)Nc1ccc(Sc2nc(Nc3cc(C)[nH]n3)cc(N3CCC3)n2)cc1 [Compound 32],–,100 to 1000 nM,50 to 1000 nM,–
Cc1cc(Nc2cc(N3CCC3)nc(Sc3ccc(NC(=O)c4cccc(F)c4F)cc3)n2)n[nH]1 [Compound 33],–,100 to 1000 nM,50 to 1000 nM,Ki [4]: 1 to 5 nM
Cc1cc(Nc2cc(N3CCC3)nc(Sc3ccc(NC(=O)c4ccccc4OC(F)(F)F)cc3)n2)n[nH]1 [Compound 34],–,100 to 1000 nM,50 to 1000 nM,–
Cc1cc(Nc2cc(N3CCC3)nc(Sc3ccc(NC(=O)c4c(Cl)cccc4Cl)cc3)n2)n[nH]1 [Compound 46],–,≤ 100 nM,50 to 1000 nM,–
Cc1cc(Nc2cc(N3CCC3)nc(Sc3ccc(NC(=O)c4cccc(Cl)c4)cc3)n2)n[nH]1 [Compound 53],50 to 1000 nM,100 to 1000 nM,–,–
Cc1cc(Nc2cc(N3CCC3)nc(Sc3ccc(NC(=O)c4ccccc4C(F)(F)F)cc3)n2)[nH]n1 [Compound 56],≤ 50 nM,100 to 1000 nM,–,"IC50 ([1]; COLO 205, Colo205 cells, incubated for 72 hours): 30 to 200 nM"
O=C(Nc1ccc(Sc2nc(Nc3cc(C4CC4)[nH]n3)cc(N3CCC3)n2)cc1)c1ccccc1Cl [Compound 65],50 to 1000 nM,≤ 100 nM,–,Ki ([5]; read-out: JAK3 Ki value): ≤ 10 nM
O=C(Nc1ccc(Sc2nc(Nc3cc(CO)[nH]n3)cc(N3CCC3)n2)cc1)c1ccccc1Cl [Compound 75],–,1000 to 2000 nM,–,Ki [4]: 5 to 200 nM; Ki [3]: 50 to 2000 nM
Cc1cc(Nc2cc(N3CCC3)nc(Sc3ccc(NC(=O)c4cccc(C)c4Cl)cc3)n2)n[nH]1 [Compound 161],50 to 1000 nM,100 to 1000 nM,–,Ki ([5]; read-out: JAK3 Ki value): ≤ 10 nM
Cc1cc(Nc2cc(N3CCC3)nc(Sc3ccc(NC(=O)c4cc(Cl)ccc4Cl)cc3)n2)n[nH]1 [Compound 163],50 to 1000 nM,100 to 1000 nM,–,–
CCc1cccc(C(=O)Nc2ccc(Sc3nc(Nc4cc(C)[nH]n4)cc(N4CCC4)n3)cc2)c1Cl [Compound 164],≤ 50 nM,100 to 1000 nM,–,Ki [5]: ≤ 10 nM
